Measured values reported in PMC11944514, “Dengue Virus Inhibitors as Potential Broad-Spectrum Flavivirus Inhibitors” (Pharmaceuticals, 2025).
“Also recorded” adds a separate entry of the source.

Tests used:
[1] = xCELLigence real-time cytotoxicity assay (RTCA), CC50; format: cell-based; conditions: African green monkey, Vero E6 cells, 24 h of exposure
Procedure: As compounds C1, C2, and C3 were relatively toxic (Figure 2A), we determined the selectivity index (SI) of the identified potential broad-spectrum flavivirus inhibitors. As the WST-1 assay tends to underestimate the toxic effect and is unable to detect cytostatic effects, the CC50 of the perspective compounds was measured using a more sensitive xCELLigence real-time cytotoxicity assay (RTCA). […] The full xCELLigence RTCA data are provided in the Supporting Information section (Figures S2 and S3). Thereafter, for each compound, the SI was calculated as a ratio of the CC50 of a compound against its EC50 [36].
Vero E6 cells were seeded on a 16-well E-plate (ACEA Biosciences, Inc., San Diego, CA, USA ) at a density of 5 × 10^3 cells/well and allowed to adhere overnight. On the next day, the studied compounds were added at the final concentrations ranging from 0.078 μM to 5 μM with a two-fold dilution step for compounds C1, C2, and C3, and at the final concentrations ranging from 1.56 μM to 50 μM with a two-fold dilution step for compounds C5 and C6; 0.01% DMSO was used as a solvent control. The cells were incubated for 5 days, and the signals between the electrodes (impedance) were recorded using an RTCA xCELLigence machine (Agilent Technologies, Inc., Santa Clara, CA, USA). […] The CC50 values were calculated using GraphPad Prism 10.0 for Windows, GraphPad Software, v. 10.4.1, Boston, MA, USA, www.graphpad.com (accessed on 16 February 2025).

[2] = test system: DENV2-Nanoluc; experiment: microbe, parasite or virus in culture; format: cell-based
[3] = test system: ZIKV-Nanoluc; experiment: microbe, parasite or virus in culture; format: cell-based
[4] = test system: TBEV-Nanoluc; experiment: microbe, parasite or virus in culture; format: cell-based; conditions: for EC50: Tick-borne encephalitis virus, Vero C1008, read-out: TBEV EC50, μM
[5] = test system: Vero E6 cells; experiment: WST-1 cell viability assay, Vero E6; format: cell-based, African green monkey; conditions: Vero E6, 48 h of exposure
Procedure: (§1) The cytotoxic effect of all studied compounds was assessed using the WST-1 assay after 48 h of exposure. […] This observation can be explained by the fact that the compound C8 is resazurin, phenoxazine dye, also known as Alamar Blue, which is subject to irreversible metabolic reduction to the resorufin by live mammalian cells. Thus, the cytotoxic effect of this compound cannot be assessed by the WST-1 assay correctly. Therefore, the C8 cytotoxicity was further assessed using the resazurin cell viability assay. This assay allowed us to avoid the interference between the tested compound and dye and obtain more reliable results for colored compounds.
(§2) Vero E6 or U2OS cells were seeded on the 96-well plate at a density of 1 × 10^4 cells/well and were allowed to adhere overnight. Next day, the cells were treated with the studied compounds at concentrations ranging from 1 to 100 μM with a ten-fold dilution step. As a solvent control, 0.01% DMSO (Sigma, St. Louis, MO, USA) was used. After 48 h of exposure, 10 μL of WST-1 (10 mg/mL) cell proliferation reagent (Roche, Cat. No. 11644807001) was added to each well, and plates were incubated at 37 °C, 5% CO2 for 2 h. The optical density was then measured at 450 nm using an Epoch Microplate Spectrophotometer (BioTek Instruments, Inc., Winooski, VT, USA). Four independent experiments were carried out in triplicates.

[6] = test system: KUNV-Nanoluc; experiment: organism not typed; format: cell-based
[7] = test system: TBEV-Nanoluc replicon; format: cell-based
[8] = test system: KUNV-Nanoluc replicon; format: cell-based
[9] = test system: U2OS cells; experiment: WST-1 cell viability assay, U2OS; format: cell-based, human; conditions: 48 h of exposure
Procedure: as §2

[10] = test system: DENV2-Nanoluc replicon; format: cell-based
[11] = test system: ZIKV-Nanoluc replicon; format: cell-based
[12] = test system: Vero E6 cells; experiment: Resazurin cell viability assay, Vero E6; format: cell-based, African green monkey; conditions: Vero E6, 48 h of exposure
Procedure: as §1
Vero E6 cells were seeded on a 96-well plate at a density of 1 × 10^4 cells/well and were allowed to adhere overnight. On the next day, the medium was replaced with a fresh complete growth medium containing the desired compound at final concentrations ranging from 1 μM to 100 μM with a ten-fold dilution step; 0.05% DMSO was used as a solvent control. […] Thereafter, the fluorescence was measured by a Synergy H1 Hybrid Multi-Mode Microplate Reader (BioTek Instruments, Inc., Winooski, VT, USA) using a 540 nm excitation and 590 nm emission filter. […]

| Compound | CC50 at 24 h [1] [µM] | antiviral effect against DENV2-Nanoluc (initial screening) [2] | antiviral effect against ZIKV-Nanoluc (initial screening) [3] | antiviral effect against TBEV-Nanoluc (initial screening) [4] | cytotoxic effect (WST-1 assay) [5] | antiviral effect against KUNV-Nanoluc (initial screening) [6] | EC50 ([6]; Vero C1008, read-out: KUNV EC50, μM) [µM] | EC50 ([2]; Dengue virus, DENV2, Vero C1008, read-out: DENV2 EC50, μM) [µM] | EC50 ([3]; Zika virus, Vero C1008, read-out: ZIKV EC50, μM) [µM] | EC50 [4] [µM] | antiviral effect against TBEV-Nanoluc replicon [7] | antiviral effect against KUNV-Nanoluc replicon [8] | cytotoxic effect (WST-1 assay) [9] | antiviral effect against DENV2-Nanoluc replicon [10] | antiviral effect against ZIKV-Nanoluc replicon [11] | cytotoxic effect (resazurin cell viability assay) [12] |
| --- | --- | --- | --- | --- | --- | --- | --- | --- | --- | --- | --- | --- | --- | --- | --- | --- |
| Nc1nc(N)c2c(Oc3ccc(F)cc3)cccc2n1 [Compound C4, 5-(4-fluorophenoxy)quinazoline-2,4-diamine] | > 0.2 | negligible inhibition effect at the maximum tested concentration | some tendency to decrease the ZIKV-Nanoluc activity at a concentration of 2 μM | partially inhibit viral replication at the minimal tested concentration without an apparent dose-dependent effect |  |  |  |  |  |  |  |  |  |  |  |  |
| O=[N+]([O-])c1c(Nc2ccccc2O)cc(Cl)c2nonc12 [Compound C5, 2-[(7-chloro-4-nitro-2,1,3-benzoxadiazol-5-yl)amino]phenol] | 12.8 | apparent dose-dependent antiviral effects | at the 50 μM concentration, the virus activity was completely inhibited | clear dose-dependent antiviral effect | moderate cytotoxic effect at 50 μM | decreased the KUNV-Nanoluc activity only at the maximum tested concentrations | 8.9 | 2.91 | 10.4 | 9.88 |  |  |  |  |  |  |
| Nc1ncnc2c1ncn2C1OC(CO)C(O)C1O (centres unmarked) [Compound C7, 2-(6-amino-9H-purin-9-yl)-5-(hydroxymethyl)oxolane-3,4-diol] | > 50 |  |  | clear dose-dependent antiviral effect | no cytotoxic effect at the maximal tested concentration | slight inhibition effect was observed for compound C7 at the 50 μM concentration |  |  |  | 8.33 | no inhibition of TBEV replication was observed; also recorded: inactive against all studied flavivirus replicons at the maximal non-toxic concentration | inactive against all studied flavivirus replicons at the maximal non-toxic concentration | more toxic for the U2OS cells at the maximum tested concentration than in the Vero E6 cells | slight inhibition effect against DENV2-Nanoluc if it was added at 1 h post-transfection; also recorded: inactive against all studied flavivirus replicons at the maximal non-toxic concentration | inactive against all studied flavivirus replicons at the maximal non-toxic concentration |  |
| O=c1ccc2[n+]([O-])c3ccc([O-])cc3oc-2c1.[Na+] [Compound C8, sodium 3-oxo-3H-phenoxazin-10-ium-7,10-bis(olate)] | > 50 | negligible inhibition effect at the maximum tested concentration; also recorded: no antiviral effect against DENV2-Nanoluc in the tested concentrations range |  | partially inhibit viral replication at the minimal tested concentration without an apparent dose-dependent effect | inverse dose-dependent effect |  |  |  |  |  |  |  |  |  |  | no cytotoxic effect |
